Activity calls are given as the source filed them.
Tests used:
[1] = Luminescence Cell-Based Dose Confirmation to Identify Activators of 5'UTR Stem-Loop Driven Alpha-Synuclein mRNA Translation in H4 Neuroglioblastoma Cells. [Related pubchem assays: 1829 (Project Summary), 1814 (Primary HTS)]; assay type: functional
[2] = Luminescence Cell-Based Dose Response to Identify Activators of Luciferase Translation or Activity in H4-C Neuroglioblastoma Cells. [Related pubchem assays: 1829 (Project Summary), 1814 (Primary HTS)]; assay type: functional
[3] = Luminescence Cell-Based Dose Response to Identify Activators of 5'UTR Stem-Loop Driven Prion Protein mRNA Translation in H4-C Neuroglioblastoma Cells. [Related pubchem assays: 1829 (Project Summary), 1814 (Primary HTS)]; assay type: functional
[4] = Luminescence Cell-Based Dose Response HTS to Identify Activators of Luciferase Translation or Activity in H4 […] Cells. [Related pubchem assays: 1829 (Project Summary), 1814 (Primary HTS)]; assay type: functional
H4 = experiment: Luminescence Cell-Based Dose Response HTS to Identify Activators of 5'UTR Stem-Loop Driven Prion Protein mRNA Translation in H4 Neuroglioblastoma Cells. [Related pubchem assays: 1829 (Project Summary), 1814 (Primary HTS)]; assay type: functional; conditions: Homo sapiens
[5] = biological target: Luciferin 4-monooxygenase (Photinus pyralis, UniProt P08659); experiment: Counter Screen for Luciferase-based Assay Positives. [Related pubchem assays: 620, 618, 411 ]
[6] = biological target: T1, Microphthalmia-associated transcription factor (Homo sapiens, UniProt O75030); experiment: reducers of TRPM1 reporter luminescence, concentration series – cell-based, SK-MEL-5, cherry-picked, set 3, MITF inhibitor project, dose response (AID 493073); assay type: functional;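 also: SK-MEL-5 melanoma cells with luciferase driven by the MITF target TRPM1 promoter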
T1 sequence (O75030 whole entry): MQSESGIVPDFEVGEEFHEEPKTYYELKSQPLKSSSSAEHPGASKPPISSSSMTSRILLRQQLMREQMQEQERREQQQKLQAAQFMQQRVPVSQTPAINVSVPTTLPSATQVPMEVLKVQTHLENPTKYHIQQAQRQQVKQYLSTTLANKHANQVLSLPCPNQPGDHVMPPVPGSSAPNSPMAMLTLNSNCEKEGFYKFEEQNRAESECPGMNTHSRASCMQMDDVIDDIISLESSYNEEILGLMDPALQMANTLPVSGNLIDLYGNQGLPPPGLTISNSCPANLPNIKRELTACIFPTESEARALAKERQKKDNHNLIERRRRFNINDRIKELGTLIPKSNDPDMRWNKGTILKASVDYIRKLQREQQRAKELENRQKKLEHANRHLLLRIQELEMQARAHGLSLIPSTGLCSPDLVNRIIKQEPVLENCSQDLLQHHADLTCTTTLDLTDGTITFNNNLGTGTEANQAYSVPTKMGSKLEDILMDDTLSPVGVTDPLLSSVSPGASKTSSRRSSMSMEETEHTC

HT-1080 = experiment: HT1080 cell viability loss – fluorescence readout (AID 620); assay type: functional, cell-based; conditions: Homo sapiens
[7] = biological target: T2, Polyadenylate-binding protein 1 (Homo sapiens, UniProt P11940); experiment: MLLE domain peptide-binding blockers, IC50 – biochemical, fluorescence polarization, FITC-PAM2 peptide, dose response (AID 602259); assay type: functional; conditions: read-out: IC50_Mean
[8] = A Cell Based Secondary Assay To Explore Cytotoxicity of Compounds that Sensitize Mycobacterium Tuberculosis to Beta-Lactam Antibiotics.; assay type: functional
[9] = biological target: T2, Polyadenylate-binding protein 1; experiment: MLLE binding blockers, Cy5 peptide tracer – biochemical, fluorescence polarization, Cy5-PAM2 peptide, secondary, miRNA deadenylation inhibitor project, dose response (AID 602260); assay type: functional; conditions: read-out: IC50_Mean
HEK293 = experiment: Fluorescence-based counterscreen for potentiators or agonists of NPY-Y2: cell-based high-throughput dose response assay to identify inhibitors of cyclic nucleotide gated ion channel (CNGC) activity. In this assay, the parental HEK293 cell line transfected with a cyclic-nucleotide gated ion channel (CNGC)-based cAMP sensor is used to measure inhibition of isoproterenol-induced CNGC activity by test compound.; assay type: functional; conditions: Homo sapiens;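 also: stimulus is 1 µM isoproterenol at EC100 plus PDE inhibitor Ro 20-1724 at 25 µM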
[10] = biological target: T3, Neuropeptide Y receptor type 2 (Homo sapiens, UniProt P49146); experiment: Fluorescence-based cell-based high-throughput dose response assay for agonists of NPY-Y2. [Related pubchem assays: 1703 (Screening assay (CNGC inhibitors).), 1359 (Screening assay (NPY-Y2 potentiators or agonists).), 1304 (Screening assay (NPY-Y1 potentiators or agonists).), 1710 (Screening assay (NPY-Y2 agonists).), 1791 (Summary AID.)]; assay type: functional
T3 sequence (P49146 whole entry): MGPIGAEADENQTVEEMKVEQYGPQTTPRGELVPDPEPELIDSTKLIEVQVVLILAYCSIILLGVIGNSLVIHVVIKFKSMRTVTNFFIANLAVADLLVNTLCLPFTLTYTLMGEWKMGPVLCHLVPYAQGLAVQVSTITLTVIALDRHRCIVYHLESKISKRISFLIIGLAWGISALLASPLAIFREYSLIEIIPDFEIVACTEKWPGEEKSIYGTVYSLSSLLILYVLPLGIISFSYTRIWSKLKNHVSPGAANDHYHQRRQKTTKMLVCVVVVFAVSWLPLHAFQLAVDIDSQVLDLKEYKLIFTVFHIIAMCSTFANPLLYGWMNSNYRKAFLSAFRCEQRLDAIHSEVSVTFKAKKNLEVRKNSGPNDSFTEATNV

Protein RecA = biological target: T4, Protein RecA (Mycobacterium tuberculosis, UniProt P9WHJ3); experiment: Fluorescence Cell-Free Homogeneous Dose Retest to Identify Inhibitors of RecA-Intein Splicing Activity. [Related pubchem assays (depositor defined):AID2097, AID2223, AID489010, AID492950]; assay type: functional
T4 sequence (P9WHJ3 whole entry): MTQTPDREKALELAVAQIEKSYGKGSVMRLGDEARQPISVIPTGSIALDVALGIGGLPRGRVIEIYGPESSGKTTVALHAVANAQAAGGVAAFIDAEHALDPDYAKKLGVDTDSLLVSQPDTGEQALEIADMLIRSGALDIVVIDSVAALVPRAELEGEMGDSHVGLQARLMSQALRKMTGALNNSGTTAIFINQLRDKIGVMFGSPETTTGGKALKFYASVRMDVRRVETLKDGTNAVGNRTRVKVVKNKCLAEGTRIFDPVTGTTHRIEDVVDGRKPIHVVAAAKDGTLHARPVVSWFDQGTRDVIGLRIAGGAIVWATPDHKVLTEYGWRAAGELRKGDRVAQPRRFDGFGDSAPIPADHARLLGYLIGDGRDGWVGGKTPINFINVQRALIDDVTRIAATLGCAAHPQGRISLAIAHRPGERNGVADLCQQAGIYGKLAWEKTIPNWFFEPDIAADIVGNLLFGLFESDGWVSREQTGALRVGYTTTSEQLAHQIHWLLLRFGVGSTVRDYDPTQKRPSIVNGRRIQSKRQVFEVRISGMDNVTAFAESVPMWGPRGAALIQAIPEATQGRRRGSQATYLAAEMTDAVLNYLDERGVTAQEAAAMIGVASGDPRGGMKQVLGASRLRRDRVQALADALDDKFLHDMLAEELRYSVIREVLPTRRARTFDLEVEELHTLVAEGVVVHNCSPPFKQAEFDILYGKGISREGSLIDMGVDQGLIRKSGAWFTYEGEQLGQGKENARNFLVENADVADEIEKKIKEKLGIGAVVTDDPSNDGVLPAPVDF

[11] = biological target: T5, Replicative DNA helicase DnaB (Mycobacterium tuberculosis, UniProt P9WMR3); experiment: DnaB intein splicing inhibitors, dose response, biochemical, cell-free fluorescence (AID 449749); assay type: functional
T5 sequence (P9WMR3 whole entry): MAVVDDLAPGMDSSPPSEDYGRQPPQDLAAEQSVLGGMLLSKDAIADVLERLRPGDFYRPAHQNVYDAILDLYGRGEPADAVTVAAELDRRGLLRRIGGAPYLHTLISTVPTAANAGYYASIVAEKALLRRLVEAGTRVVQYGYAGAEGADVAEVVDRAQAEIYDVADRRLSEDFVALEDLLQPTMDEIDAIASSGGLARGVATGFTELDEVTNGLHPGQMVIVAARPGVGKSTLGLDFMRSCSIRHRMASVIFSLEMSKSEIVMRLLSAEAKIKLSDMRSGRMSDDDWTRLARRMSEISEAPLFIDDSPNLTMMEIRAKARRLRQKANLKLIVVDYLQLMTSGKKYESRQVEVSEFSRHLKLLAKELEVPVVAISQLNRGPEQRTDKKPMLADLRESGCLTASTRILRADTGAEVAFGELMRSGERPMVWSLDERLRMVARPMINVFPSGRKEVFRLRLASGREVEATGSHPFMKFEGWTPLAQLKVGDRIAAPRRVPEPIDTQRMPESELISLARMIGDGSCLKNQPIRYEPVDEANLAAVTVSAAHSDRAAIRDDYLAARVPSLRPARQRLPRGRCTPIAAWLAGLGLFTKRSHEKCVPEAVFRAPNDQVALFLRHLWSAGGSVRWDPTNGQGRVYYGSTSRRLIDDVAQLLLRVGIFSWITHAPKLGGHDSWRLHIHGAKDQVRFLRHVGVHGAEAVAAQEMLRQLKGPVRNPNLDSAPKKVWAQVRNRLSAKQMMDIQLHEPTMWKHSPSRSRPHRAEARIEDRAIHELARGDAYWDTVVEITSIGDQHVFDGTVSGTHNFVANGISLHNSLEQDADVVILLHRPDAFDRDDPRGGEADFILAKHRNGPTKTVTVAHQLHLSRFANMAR

[12] = Luminescent dose response cell-based high throughput screening assay for inhibitors of the Janus kinase 2 mutant JAK2V617F. [Related pubchem assays: 1446 (Primary screen.), 1521 (Confirmation assay.), 1486 (Counter screen.)]; assay type: functional
[13] = biological target: T6, Neuropeptide Y receptor type 1 (Homo sapiens, UniProt P25929); experiment: Fluorescence-based counterscreen for agonists of NPY-Y2: cell-based high-throughput dose response assay for agonists of NPY-Y1.; assay type: functional
T6 sequence (P25929 whole entry): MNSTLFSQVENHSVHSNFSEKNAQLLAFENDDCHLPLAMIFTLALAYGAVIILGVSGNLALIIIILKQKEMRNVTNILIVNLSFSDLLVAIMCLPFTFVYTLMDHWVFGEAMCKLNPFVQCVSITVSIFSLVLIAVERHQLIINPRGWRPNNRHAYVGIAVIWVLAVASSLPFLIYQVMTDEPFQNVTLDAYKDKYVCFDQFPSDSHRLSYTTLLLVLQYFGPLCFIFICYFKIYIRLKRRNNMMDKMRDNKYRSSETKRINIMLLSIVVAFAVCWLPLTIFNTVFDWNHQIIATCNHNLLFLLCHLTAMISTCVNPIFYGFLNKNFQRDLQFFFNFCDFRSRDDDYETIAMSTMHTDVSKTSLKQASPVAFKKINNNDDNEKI

Vero = experiment: viability of Vero cells under compound – cytotoxicity control for flavivirus capping enzyme inhibitors (AID 588742); assay type: functional; conditions: Chlorocebus sabaeus
[14] = biological target: T7, High affinity choline transporter 1 (Homo sapiens, UniProt Q9GZV3); experiment: human choline transporter blockers, potency – cell-based, 5-point CRC, membrane potential dye, dose response (AID 504840); assay type: functional
T7 sequence (Q9GZV3 whole entry): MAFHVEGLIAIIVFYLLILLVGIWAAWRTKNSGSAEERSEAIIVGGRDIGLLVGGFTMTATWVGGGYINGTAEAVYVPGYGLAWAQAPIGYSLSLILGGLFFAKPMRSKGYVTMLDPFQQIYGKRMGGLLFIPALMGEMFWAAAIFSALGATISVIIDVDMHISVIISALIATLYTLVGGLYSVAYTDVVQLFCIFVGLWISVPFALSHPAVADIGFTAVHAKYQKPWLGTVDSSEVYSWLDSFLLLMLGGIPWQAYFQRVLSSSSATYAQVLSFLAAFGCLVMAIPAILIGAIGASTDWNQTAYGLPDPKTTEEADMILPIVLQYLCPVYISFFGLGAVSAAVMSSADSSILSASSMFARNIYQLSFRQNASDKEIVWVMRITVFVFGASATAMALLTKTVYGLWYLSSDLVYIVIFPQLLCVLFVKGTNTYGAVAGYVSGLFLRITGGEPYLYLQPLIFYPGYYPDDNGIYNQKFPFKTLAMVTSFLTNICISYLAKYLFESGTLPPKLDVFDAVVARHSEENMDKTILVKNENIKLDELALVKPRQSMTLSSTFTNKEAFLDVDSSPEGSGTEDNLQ

[15] = reduction of Shn3 3'UTR-driven luciferase in osteoblasts – cell-based, Clone20 osteoblasts, firefly luciferase, cherry-picked, dose response (AID 624132); assay type: functional;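 also: firefly luciferase luminescence from reporter carrying the Shn3 3'UTR in osteoblasts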
[16] = biological target: T7, High affinity choline transporter 1; experiment: human choline transporter blockers, potency – cell-based, 10-point CRC, membrane potential dye, dose response (AID 588401); assay type: functional;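 also: membrane potential dye fluorescence of choline-evoked depolarization via CHT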
[17] = non-specific 3'UTR reporter inhibition in Clone20-Shn3RL – cell-based, Renilla luciferase, cherry-picked, counter-screen for Shn3 inhibitor project, dose response (AID 624133); assay type: functional
[18] = biological target: Potassium voltage-gated channel subfamily KQT member 2 (Rattus norvegicus, UniProt O88943, W236L); experiment: potentiation of rat KCNQ2 current – cell-based, automated electrophysiology, mechanism study for KCNQ2 potentiator project, dose response (AID 2603); assay type: functional
Sequence of Potassium voltage-gated channel subfamily KQT member 2 (O88943 whole entry W236L): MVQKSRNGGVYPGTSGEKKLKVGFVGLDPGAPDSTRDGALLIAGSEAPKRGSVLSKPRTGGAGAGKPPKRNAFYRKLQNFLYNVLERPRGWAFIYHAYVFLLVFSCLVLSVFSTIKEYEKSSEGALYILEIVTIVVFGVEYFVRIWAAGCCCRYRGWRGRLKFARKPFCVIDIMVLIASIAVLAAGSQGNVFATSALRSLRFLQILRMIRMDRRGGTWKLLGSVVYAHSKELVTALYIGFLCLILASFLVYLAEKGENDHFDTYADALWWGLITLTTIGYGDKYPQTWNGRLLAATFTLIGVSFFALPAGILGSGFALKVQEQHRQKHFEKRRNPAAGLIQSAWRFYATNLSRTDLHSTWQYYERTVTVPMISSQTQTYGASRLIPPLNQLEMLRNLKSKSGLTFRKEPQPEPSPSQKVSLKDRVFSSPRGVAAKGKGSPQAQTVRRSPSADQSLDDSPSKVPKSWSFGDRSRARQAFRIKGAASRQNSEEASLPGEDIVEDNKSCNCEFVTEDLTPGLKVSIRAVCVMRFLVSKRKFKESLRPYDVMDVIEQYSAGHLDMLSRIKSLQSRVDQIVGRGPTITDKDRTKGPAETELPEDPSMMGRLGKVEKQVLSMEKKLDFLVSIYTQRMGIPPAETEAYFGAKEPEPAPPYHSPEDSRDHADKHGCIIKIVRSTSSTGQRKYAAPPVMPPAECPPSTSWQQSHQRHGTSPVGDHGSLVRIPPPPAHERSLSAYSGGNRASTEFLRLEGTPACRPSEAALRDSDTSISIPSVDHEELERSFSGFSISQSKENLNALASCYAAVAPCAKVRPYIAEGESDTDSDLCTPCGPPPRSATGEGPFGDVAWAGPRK

T2 sequence (P11940 whole entry, the tested form may be a part): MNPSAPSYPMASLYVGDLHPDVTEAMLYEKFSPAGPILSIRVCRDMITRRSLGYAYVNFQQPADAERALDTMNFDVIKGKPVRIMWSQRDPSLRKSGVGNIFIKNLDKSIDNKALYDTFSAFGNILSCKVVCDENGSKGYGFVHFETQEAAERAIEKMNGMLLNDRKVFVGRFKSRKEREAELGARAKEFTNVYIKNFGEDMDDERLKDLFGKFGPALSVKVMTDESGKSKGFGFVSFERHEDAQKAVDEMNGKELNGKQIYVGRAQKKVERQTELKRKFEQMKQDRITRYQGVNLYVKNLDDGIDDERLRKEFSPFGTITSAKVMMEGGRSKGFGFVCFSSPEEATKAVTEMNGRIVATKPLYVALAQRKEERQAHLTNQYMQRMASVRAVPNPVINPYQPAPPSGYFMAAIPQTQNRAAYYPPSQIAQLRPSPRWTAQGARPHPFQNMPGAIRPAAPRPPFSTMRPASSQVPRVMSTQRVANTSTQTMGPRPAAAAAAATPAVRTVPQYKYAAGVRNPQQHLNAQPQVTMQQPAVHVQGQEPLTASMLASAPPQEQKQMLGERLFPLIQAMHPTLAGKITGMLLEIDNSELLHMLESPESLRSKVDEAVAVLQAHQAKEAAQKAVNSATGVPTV
Sequence of Luciferin 4-monooxygenase (P08659 whole entry): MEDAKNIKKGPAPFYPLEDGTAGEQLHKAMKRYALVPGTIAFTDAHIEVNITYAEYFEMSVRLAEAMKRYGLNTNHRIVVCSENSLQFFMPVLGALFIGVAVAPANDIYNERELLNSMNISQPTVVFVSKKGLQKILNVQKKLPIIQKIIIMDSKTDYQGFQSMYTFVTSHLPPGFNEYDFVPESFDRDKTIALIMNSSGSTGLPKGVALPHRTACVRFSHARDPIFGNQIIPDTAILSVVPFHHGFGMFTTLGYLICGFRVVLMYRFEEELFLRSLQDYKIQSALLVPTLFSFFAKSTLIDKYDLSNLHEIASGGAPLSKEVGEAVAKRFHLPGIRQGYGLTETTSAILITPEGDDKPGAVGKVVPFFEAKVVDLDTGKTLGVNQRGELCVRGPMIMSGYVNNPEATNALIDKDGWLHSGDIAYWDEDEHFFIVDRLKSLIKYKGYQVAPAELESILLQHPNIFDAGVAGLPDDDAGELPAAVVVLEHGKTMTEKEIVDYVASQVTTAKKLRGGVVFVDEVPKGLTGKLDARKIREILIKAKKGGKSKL

Cc1nn(-c2nc3ccccc3s2)c(N)c1-c1ccccc1
EC50 [1]: 277 nM (active)
EC50 [2]: 1.66 µM (active)
EC50 [3]: 346 nM (active)
EC50 [4]: < 100 nM (active)
EC50 (H4): > 120 µM (not active)

COc1ccc(/C(O)=C\C=N\c2ccccn2)cc1
EC50 [5]: 73.2 µM (active)
AC50 [6]: 3.72 µM (active)
EC50 (HT-1080): > 50 µM (not active)

Cc1ccc(NC(=O)c2ccc3c(c2)OCCO3)cc1
EC50 [5]: 0.81 µM (active)
EC50 (HT-1080): > 50 µM (not active)

CCC(=O)N1CCN(c2ccc(NC(=S)NC(=O)c3ccc(OC)c([N+](=O)[O-])c3)cc2)CC1
IC50 [7]: > 66 µM (inactive)
CC50 [8]: > 40 µM (active)
IC50 [9]: > 66 µM (inactive)

O=C(CCl)NC(=O)NC12CC3CC(CC(C3)C1)C2
EC50 (HEK293): > 35.4 µM (not active)
EC50 [10]: > 35.4 µM (not active)
EC50 (Protein RecA): 5.47 µM (active)
AC50 [11]: 12 µM (active)
IC50 [12]: 870 nM (active)
EC50 [13]: > 35.4 µM (not active)

N#C/C(=C(/O)COC(=O)CCc1ccc(S(=O)(=O)N2CCOCC2)cc1)c1nc2ccccc2[nH]1
CC50 [8]: > 40 µM (active)

Cc1ccc(CS(=O)(=O)c2ncc(Cl)c(C(=O)Nc3nnc(C)s3)n2)cc1
CC50 (Vero): 17.4 µM (active)
IC50 [14]: 4.05 µM (active)
EC50 (Protein RecA): 16 µM (active)
AC50 [15]: 639 nM (active)
IC50 [16]: 3.98 µM (active)
AC50 [17]: 6.75 µM (active)
AC50 [11]: 14.2 µM (active)
EC50 [18]: 5.4 µM (active)

Reference: ChEMBL document CHEMBL1201862, “PubChem BioAssay data set” (2004)
